Source: patent US12629408B2, “Peptides with anti-tumor activity” (UNIVERSITA' DEGLI STUDI DI PADOVA, priority 2019, dated 2026)
Like-named read-outs stand apart in the source and are kept apart here. Square brackets hold non-standard residues; d marks the D form. Ends that are not written are not given here. Ahx = NCCCCCC(=O)O; βAla = NCCC(=O)O

Legend:
[1] = test system: murine colon carcinoma line CT26; assay: In vivo colon cancer, CT26 subcutaneous tumor, injection into the tumors (FIG. 1); parameters: species or system Balb/c mice
Method: (§1) 100,000 tumor cells from the murine colon carcinoma line CT26 were injected subcutaneously (in the right flank) to male Balb/c mice. The transplanted cells give rise to a subcutaneous tumor clearly visible from the outside in just over a week. Using this in vivo tumorigenesis procedure, we conducted three different experiments (described below) whose results are represented in FIGS. 1, 2 and 3.
At 8 days post-cell inoculation, the mice were divided into three groups (FIG. 1) and saline boluses (NaCl) without any other solute, or containing the active form of ACPP-HK2 resulting from the proteolytic cut (pepHK2, 2 nmol/injection), or finally containing the entire ACPP-HK2 (2 nmol/injection) were injected into the tumors. Each bolus consisted of 20 μl solution and was injected every 12 hours up to 60 hours. 72 hours after the start of the treatment, the mice were sacrificed, and the tumor volume was measured.

[2] = test system: murine colon carcinoma line CT26; assay: In vivo colon cancer, CT26 subcutaneous tumor, intraperitoneal injections (FIGS. 2, 3); parameters: species or system Balb/c mice
Method: as §1
Administration was performed every 12 hours by means of intraperitoneal injections of 500 μl each containing 30 nmoles of peptide (ACPP-HK2 or ACPP-SCR). […] Every 48 hours the size of the tumors was measured externally, and their volumes calculated.
In this experiment, a double dose of peptides (60 nmoles/injection) was administered compared to the second experiment, again by intraperitoneal injection.

[3] = test system: murine breast cancer cell line 4T1; assay: In vivo breast cancer, 4T1 subcutaneous tumor, intraperitoneal injections (FIG. 4); parameters: species or system mice; settings: 4T1, intraperitoneal, 60 nmoles every 12 hours up to 60 hours
Method: In this experiment (FIG. 4), 200,000 murine breast cancer cell line 4T1 were injected subcutaneously into female mice. At 9 days post-inoculation of the cells, the mice were divided into two experimental groups and 60 nmoles of peptides (ACPP-HK2 or ACPP-SCR) dissolved in 500 μl of saline solution were injected intraperitoneally. The injections followed one the other every 12 hours up to 60 hours and at 72 hours the experiment ended.

[4] = test system: HeLa cervical cancer cell line; assay: Cell viability after treatment with ACPP-HK2 sequence variants; assay type: cell-based, human; settings: between 5 and 50 μM, 18 or 36 hours
Text: FIGS. 9A and 9B report cell viability after treatment of tumor cells (HeLa cervical cancer cell line) at various concentrations and times with the peptides ACPP-HK2 (SEQ ID NO:1), ACPP-HK2 II (SEQ ID) NO: 8), ACPP-HK2 III (SEQ ID NO: 9) and ACPP-HK2 IV (SEQ ID NO:10).

non-tumor tissues [5] = settings: mouse, in vivo
Text: (§2) At the end of each experiment shown in FIGS. 2, 3 and 4, and described in Example 2, male and female Balb/c mice underwent a complete autopsy with the assistance of an anatomopathologist expert. […] The group of mice not receiving any peptide treatment (NaCl) acts as an additional control.
(§3) List of organs or tissues analyzed: heart, skeletal muscle, kidney, spleen, lung, liver, brain, intestine, pancreas, bone marrow, lymph nodes, thyroid gland, parathyroid glands, and adrenal glands.

non-tumor tissues [6] = assay: Autopsy and histological evaluation of internal organs of treated mice
Text: as §2, §3

Substance: MIASHLLAYFFTELN βA RRRRRRRRR PLGLAG Ahx EEEEEEEE (MIASHLLAYFFTELN[βAla]RRRRRRRRRPLGLAG[Ahx]EEEEEEEE) [ACPP-HK2]
- tumor growth (tumor volume) ([1]; 2 nmol/injection into the tumors every 12 hours up to 60 hours, measured at 72 hours, vs saline): reduce tumor growth
- efficacy on tumor growth, ACPP-HK2 compared with pepHK2 ([1]; 2 nmol/injection into the tumors, 72 hours): more effective
- tumor volume vs ACPP-SCR control ([2]; 30 nmoles every 12 hours, after 48 and 96 hours): significantly smaller in volume than the control tumors injected with ACPP-SCR
- tumor growth ([2]; 60 nmoles/injection every twelve hours up to the sixtieth hour): strongly reduces, up to almost blocking, tumor growth
- tumor growth [3]: almost blocked
- tumor volume vs ACPP-SCR control ([3]; end at 72 hours): significantly smaller in volume than control tumors injected with ACPP-SCR
- cell viability [4]: able to decrease cell viability of cancer cells
- histological characteristics of formalin-fixed sections of internal organs (non-tumor tissues [5]): without finding any differences among different experimental groups (ACPP-SCR and ACPP-HK2) or any tissue alterations
- toxic side effect for non-tumor tissues and the whole organism (non-tumor tissues [6]; expert's conclusion after autopsy and histology): no toxic side effect

Substance: SHLLAYFFTELN-GRKKRRQRRRG-PLGLAG-Ahx-EEEEEEEE (SHLLAYFFTELNGRKKRRQRRRGPLGLAG[Ahx]EEEEEEEE) [ACPP-HK2 III, variant ACPP-HK2 III of the peptide ACPP-HK2, 38-amino acid peptide]
- cell viability [4]: able to decrease cell viability of cancer cells

Substance: SHLLAYFFTELN-RRRRRRRRR-PLGLAG-Ahx-EEEEEEEE (SHLLAYFFTELNRRRRRRRRRPLGLAG[Ahx]EEEEEEEE) [ACPP-HK2 II, variant ACPP-HK2 II of the peptide ACPP-HK2, 36-amino acid peptide]
- cell viability [4]: able to decrease cell viability of cancer cells

Substance: SHLLAYFFTELNHD-RRRRRRRRR-PLGLAG-Ahx-EEEEEEEE (SHLLAYFFTELNHDRRRRRRRRRPLGLAG[Ahx]EEEEEEEE) [ACPP-HK2 IV, variant ACPP-HK2 IV of the peptide ACPP-HK2, 38-amino acid peptide]
- cell viability [4]: able to decrease cell viability of cancer cells

Substance: VGAHAGEYGAEALER βA RRRRRRRRR PLGLAG Ahx EEEEEEEE (VGAHAGEYGAEALER[βAla]RRRRRRRRRPLGLAG[Ahx]EEEEEEEE) [ACPP-SCR, reference compound]
- histological characteristics of formalin-fixed sections of internal organs (non-tumor tissues [6]; mice of the experiments of FIGS. 2, 3 and 4, heart, skeletal muscle, kidney, spleen, lung, liver, brain and others): without finding any differences among different experimental groups (ACPP-SCR and ACPP-HK2) or any tissue alterations
